# Assay results: paper PMC9960814, “The SlDOG1 Affect Biosynthesis of Steroidal Glycoalkaloids by Regulating GAME Expression in Tomato” (International Journal of Molecular Sciences, 2023)
# Columns and labels:
# SlGAME5-like = assay: glycosyltransferase kinetics, […] substrate; assay type: biochemical, Solanum lycopersicum; settings: 15 mM UDP-galactose as fixed glycosyl donor
# [1] = system: O=c1c(O)c(-c2ccc(O)c(O)c2)oc2cc(O)cc(O)c12; assay: purified protein; assay type: biochemical, Solanum lycopersicum; settings: 15 mM UDP-galactose as fixed glycosyl donor
compound,measurement,setting,value
C[C@H]1CC[C@]2(NC1)O[C@H]1C[C@H]3[C@@H]4CC[C@H]5C[C@@H](O)CC[C@]5(C)[C@H]4CC[C@]3(C)[C@H]1[C@@H]2C [tomatidine],Km,SlGAME5-like; methods print the varied substrate as tomatine,40 µM
O=c1c(O)c(-c2ccc(O)c(O)c2)oc2cc(O)cc(O)c12 [quercetin],Km,SlGAME5-like,33 µM
SlGAME5 (Solanum lycopersicum),Km,[1],17.50 µM
